Data on three compounds can be found in patent EP4810052A2, “HCRHR2 SELECTIVE POLYPEPTIDES” (Gubra A/S, priority 2023, dated 2026).

pEC50: −log10 of the molar value. Where two headings read alike, the source gives them in different places. Starred links: 1 amine or outer side, 2 acyl side, 3 side chain; linkers in the order of their positions; H or OH if unused. Non-standard residues stand in square brackets, D forms with d. Residues, ends and D or L forms follow the SMILES beside them. Groups on a side chain read outwards from the residue. *: point of attachment. C20 diacid = O=C(O)CCCCCCCCCCCCCCCCCCC(=O)*; γGlu = O=C(O)[C@H](CCC(=O)[*:2])N[*:1]; Nle = CCCC[C@H](N)C(=O)O; AEEA = NCCOCCOCC(=O)O

Data set [1] has as its target T1, hCRHR2 (Homo sapiens, UniProt Q13324).
T1 sequence (Q13324 1-411): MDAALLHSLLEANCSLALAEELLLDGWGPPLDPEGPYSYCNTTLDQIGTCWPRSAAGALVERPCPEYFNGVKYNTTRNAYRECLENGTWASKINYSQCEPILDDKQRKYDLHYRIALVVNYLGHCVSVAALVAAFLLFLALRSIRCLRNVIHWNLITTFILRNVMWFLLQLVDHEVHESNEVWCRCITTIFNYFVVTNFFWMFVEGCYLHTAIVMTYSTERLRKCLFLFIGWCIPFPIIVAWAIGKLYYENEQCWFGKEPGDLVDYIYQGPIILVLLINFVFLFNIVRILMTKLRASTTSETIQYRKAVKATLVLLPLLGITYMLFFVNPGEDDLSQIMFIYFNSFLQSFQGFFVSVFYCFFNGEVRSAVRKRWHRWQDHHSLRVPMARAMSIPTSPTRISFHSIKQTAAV
In words: HTRF cAMP assay, determination of hCRHR2 potency (peptide libraries 5 conc., purified peptides 11 conc.). It counts as cell-based. Particulars: for pEC50: read-out: hCRHR2 EC50. The essentials: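 Potency was read as cAMP accumulation in a stable CHO-K1 line expressing human CRHR2, used in suspension right after thawing. Detection relied on energy transfer from antibody-bound cryptate to d2-cAMP.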
For orientation: TR-FRET usually uses a lanthanide donor and a delayed reading to cut background.

Data set [2] has as its target T2, hCRHR1 (Homo sapiens, UniProt P34998).
T2 sequence (P34998 24-415): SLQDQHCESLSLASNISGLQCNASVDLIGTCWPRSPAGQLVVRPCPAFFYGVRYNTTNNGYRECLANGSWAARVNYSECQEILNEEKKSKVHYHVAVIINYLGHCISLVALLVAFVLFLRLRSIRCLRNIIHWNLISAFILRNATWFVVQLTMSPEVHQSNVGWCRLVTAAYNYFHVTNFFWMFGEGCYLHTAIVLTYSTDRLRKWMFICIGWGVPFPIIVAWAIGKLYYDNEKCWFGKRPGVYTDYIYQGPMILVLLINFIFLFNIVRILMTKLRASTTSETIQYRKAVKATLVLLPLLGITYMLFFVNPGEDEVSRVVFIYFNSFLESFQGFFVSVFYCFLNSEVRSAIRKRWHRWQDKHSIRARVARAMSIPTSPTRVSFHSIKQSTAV
In words: HTRF cAMP assay, determination of hCRHR1 potency (peptide libraries 5 conc., purified peptides 11 conc.). It counts as cell-based. Particulars: for pEC50: read-out: hCRHR1 EC50. In a few lines:
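CHO-K1 cells stably expressing human CRHR1, thawed from frozen stocks just before use, were stimulated in suspension with agonist peptides. cAMP was measured by HTRF competitive immunoassay (cryptate anti-cAMP antibody vs d2-cAMP).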

For data set [3] the following is noted: pH 7.5.
Data set [4] in a line: Chemical stability of purified peptides (RP-UHPLC main peak purity loss). It is filed as physicochemical. To be noted: 40°C; for Chemical stability at pH 7.5 after 14 days at 40°C (% degradation): pH 7.5, 14 days; for Chemical stability at pH 7.5 after 28 days at 40°C (% degradation): pH 7.5, 28 days. As to the method:
Chemical stability was tested at a concentration of approximately of 1.0 mg/ml peptide in the following vehicles: 50 mM phosphate buffer pH 7.5. Dissolved samples were incubated for at least 2 h at room temperature on a rocking table. The main peak purity at time zero (T0) was determined using reversed phase chromatography. The samples were incubated at 40°C for 14 days (T14) and 28 days (T28). The samples were analyzed with reversed phase chromatography and size exclusion chromatography.
Reversed Phase chromatography was performed on a Thermo Dionex Ultimate UHPLC system with UV detection at 215 nm) and equipped with a Kinetex column (1.7 µm, C8, 100 Å, 150 x 2.1 mm (00F-4499-AN)). Analysis was performed by gradient elution with buffer A (0.1% TFA in 95:5 H2O:acetonitrile) and buffer B (0.1% TFA in 5:95 H2O: acetonitrile) at a column temperature of 50 °C (gradient used 25-55%B over 40 min. Flowrate was 0.5 mL/min. The main peak purity was determined from the integrated chromatogram as the area under the main peak relative to the total peak area. The purity loss was calculated as the difference between the T0 and T14 time point and/or as the difference between the T0 and T28 time point.
The chemical stability of selected peptides was evaluated at varying pH's at 40° C over 28 days. Samples were prepared and analysed as described in procedure with the addition of pH adjusting samples to the targets indicated below. As a comparator,r commercially available semaglutide drug product (Ozempic®, Novo Nordisk) was included in the sample set.

A short description of data set [5]: Thioflavin T fibril formation assay of purified peptides. It is filed as physicochemical. Also on record: key: Amyloid fibril formation detected by an increase in ThT fluorescence was denoted with "Yes"; samples without increasing ThT fluorescence hence not forming amyloid fibrils were denoted "No". On the procedure: Thioflavin T fibril formation assay: Peptides were dissolved as 267 µM in 50 mM phosphate buffer pH 7.5 for 2 h at room temperature on a rocking table. The samples were then divided into three replicates of 80 µl/well and mixed with 2 µl/well Thioflavin T (ThT)to a final concentration of 4 µM ThT in a black 384 well microplate with a clear bottom (Greiner #781096). The plate was inserted in a CLARIOstar Plus microplate reader (BMG Labtech) and fibril formation was measured as an increase in fluorescence emission at 480 nm (excitation at 450 nm) during 96 h at 40°C with cycles of 5 min rest and 5 min linearshaking at700 rpm.
Compounds were dissolved to 200 µM (ca 1.0 mg/ml) in 50 mM phosphate buffer with preparation and ThT assay performed as described in the "General procedure for determination of fibril formation of peptides." above. Furthermore, samples were adjusted to pH values as indicated below. Additional co-formulations of compounds with semaglutide were prepared by dissolving compounds to 200 µM in commercially available semaglutide drug product (Ozempic®); these co-formulations were adjusted to pH 7.4.

As usually defined, the pEC50 is the EC50 on a negative log10 scale, so that one unit is a factor of ten. As for `CCCC[C@H](NC(=O)[C@@H](NC(=O)[C@H](CCC(=O)O)NC(=O)[C@H](C)NC(=O)[C@H](CC(N)=O)NC(=O)[C@H](CCC(=O)O)NC(=O)[C@H](CCCCNC(=O)COCCOCCNC(=O)COCCOCCNC(=O)CC[C@H](NC(=O)CC[C@H](NC(=O)CCCCCCCCCCCCCCCCCCC(=O)O)C(=O)O)C(=O)O)NC(=O)[C@H](C)NC(=O)[C@H](CCC(N)=O)NC(=O)[C@H](CCC(=O)O)NC(=O)[C@H](CCCNC(=N)N)NC(=O)[C@H](C)NC(=O)[C@H](C)NC(=O)[C@H](CCCNC(=N)N)NC(=O)[C@H](C)NC(=O)[C@H](CCCNC(=N)N)NC(=O)[C@H](C)NC(=O)[C@H](CCC(N)=O)NC(=O)[C@H](CO)NC(=O)[C@H](CC(C)C)NC(=O)[C@H](CC(C)C)NC(=O)[C@@H](NC(=O)[C@H](CCC(N)=O)NC(=O)[C@H](CC(C)C)NC(=O)[C@H](CC(C)C)NC(=O)CNC(=O)[C@@H](NC(=O)[C@@H]1CCCN1C(=O)[C@@H](NC(=O)[C@H](CC(=O)O)NC(=O)[C@H](CC(C)C)NC(=O)[C@H](CO)NC(=O)[C@H](CC(C)C)NC(=O)[C@@H](NC(=O)[C@@H](N)[C@@H](C)CC)C(C)C)C(C)C)[C@@H](C)CC)[C@@H](C)CC)[C@@H](C)CC)C(=O)N[C@@H](C)C(=O)N[C@@H](CCC(=O)O)C(=O)N[C@H](C(N)=O)C(C)C` [compound 239] (H-IVLSLDVPIGLLQILLSQARARAAREQAK([AEEA-AEEA-γGlu-γGlu-C20 diacid])ENAEI[Nle]AEV-NH2), in data set [1] (Table 5), the “Selectivity ratio (hCRHR1/ hCRHR2)” value is listed as >5556. In addition, in data set [1] (Table 5, purified peptides), the pEC50 is 9.05. In addition, in data set [2] (Table 5, purified peptides), the pEC50 is < 5.30. For the same compound, in data set [3], the “Solubility pH 7.5, target conc. =10 mg/mL (measured mg/mL)” value was determined as 11 mg/mL. Besides, in data set [4], the “Chemical stability at pH 7.5 after 14 days at 40°C (% degradation)” value is -1.9% and the “Chemical stability at pH 7.5 after 28 days at 40°C (% degradation)” value is recorded as -2.2%. In addition, in data set [5] (pH 7.5), the “Fibrillation (pH 7.5)” value is “No”.
Take `CCCC[C@H](NC(=O)[C@@H](NC(=O)[C@H](CCC(=O)O)NC(=O)[C@H](C)NC(=O)[C@H](CC(N)=O)NC(=O)[C@@H](NC(=O)[C@H](CCCCNC(=O)COCCOCCNC(=O)COCCOCCNC(=O)CC[C@H](NC(=O)CC[C@H](NC(=O)CCCCCCCCCCCCCCCCCCC(=O)O)C(=O)O)C(=O)O)NC(=O)[C@H](C)NC(=O)[C@H](CCC(N)=O)NC(=O)[C@H](CCC(=O)O)NC(=O)[C@H](CCCNC(=N)N)NC(=O)[C@H](C)NC(=O)[C@H](C)NC(=O)[C@H](CCCNC(=N)N)NC(=O)[C@H](C)NC(=O)[C@H](CCCNC(=N)N)NC(=O)[C@H](C)NC(=O)[C@H](CCC(N)=O)NC(=O)[C@H](CO)NC(=O)[C@H](CC(C)C)NC(=O)[C@H](CC(C)C)NC(=O)[C@@H](NC(=O)[C@H](CCC(N)=O)NC(=O)[C@H](CC(C)C)NC(=O)[C@H](CC(C)C)NC(=O)CNC(=O)[C@@H](NC(=O)[C@@H]1CCCN1C(=O)[C@@H](NC(=O)[C@H](CC(=O)O)NC(=O)[C@H](CC(C)C)NC(=O)[C@H](CO)NC(=O)[C@H](CC(C)C)NC(=O)[C@@H](NC(=O)[C@@H](N)[C@@H](C)CC)C(C)C)C(C)C)[C@@H](C)CC)[C@@H](C)CC)[C@@H](C)O)[C@@H](C)CC)C(=O)N[C@@H](C)C(=O)N[C@@H](CCC(=O)O)C(=O)N[C@H](C(N)=O)C(C)C` [compound 83] (H-IVLSLDVPIGLLQILLSQARARAAREQAK([AEEA-AEEA-γGlu-γGlu-C20 diacid])TNAEI[Nle]AEV-NH2): the “Selectivity ratio (hCRHR1/ hCRHR2)” value in data set [1] (Table 5) is on record as >9091. For the same compound, the negative-log EC50 (pEC50) was 9.26 in data set [1] (Table 5, purified peptides) and < 5.30 in data set [2] (Table 5, purified peptides). Moreover, the EC50 in data set [1] (library peptides, matched molecular pairs L vs Nle in position X^38, read-out: Potency hCRHR2 pEC50 (converted)) was 0.316 nM; in data set [2] (library peptides, matched molecular pairs L vs Nle in position X^38, read-out: Potency hCRHR1 pEC50 (converted)), 7940 nM. For the same compound, the “Solubility pH 7.5, target conc. =10 mg/mL (measured mg/mL)” value in data set [3] was 9.5 mg/mL. Besides, in data set [4], the “Chemical stability at pH 7.5 after 14 days at 40°C (% degradation)” value is -3.2%. In addition, in data set [4], the “Chemical stability at pH 7.5 after 28 days at 40°C (% degradation)” value is reported as -10%. Further, in data set [5] (pH 7.5), the “Fibrillation (pH 7.5)” value was “No”.
`CC[C@H](C)[C@H](N)C(=O)N[C@H](C(=O)N[C@@H](CC(C)C)C(=O)N[C@@H](CO)C(=O)N[C@@H](CC(C)C)C(=O)N[C@@H](CC(=O)O)C(=O)N[C@H](C(=O)N1CCC[C@H]1C(=O)N[C@H](C(=O)NCC(=O)N[C@@H](CC(C)C)C(=O)N[C@@H](CC(C)C)C(=O)N[C@@H](CCC(N)=O)C(=O)N[C@H](C(=O)N[C@@H](CC(C)C)C(=O)N[C@@H](CC(C)C)C(=O)N[C@@H](CCC(=O)O)C(=O)N[C@@H](CCC(N)=O)C(=O)N[C@@H](C)C(=O)N[C@@H](CCCNC(=N)N)C(=O)N[C@@H](C)C(=O)N[C@@H](CCCNC(=N)N)C(=O)N[C@@H](C)C(=O)N[C@@H](C)C(=O)N[C@@H](CCCNC(=N)N)C(=O)N[C@@H](CCC(=O)O)C(=O)N[C@@H](CCC(N)=O)C(=O)N[C@@H](C)C(=O)N[C@@H](CCCCNC(=O)COCCOCCNC(=O)COCCOCCNC(=O)CC[C@H](NC(=O)CC[C@H](NC(=O)CCCCCCCCCCCCCCCCCCC(=O)O)C(=O)O)C(=O)O)C(=O)N[C@H](C(=O)N[C@@H](CC(N)=O)C(=O)N[C@@H](C)C(=O)N[C@@H](CCCNC(=N)N)C(=O)N[C@H](C(=O)N[C@@H](CC(C)C)C(=O)N[C@@H](C)C(=O)N[C@@H](CCCNC(=N)N)C(=O)N[C@H](C(N)=O)C(C)C)[C@@H](C)CC)[C@@H](C)O)[C@@H](C)CC)[C@@H](C)CC)C(C)C)C(C)C` [SEQ ID NO: 2] (H-IVLSLDVPIGLLQILLEQARARAAREQAK([AEEA-AEEA-γGlu-γGlu-C20 diacid])TNARILARV-NH2): the “Selectivity ratio (hCRHR1/ hCRHR2)” value in data set [1] (hCRHR1-EC50/hCRHR2-EC50) was >2778. Moreover, the negative-log EC50 (pEC50) in data set [1] (purified peptides, CHO-K1 cells stably expressing hCRHR2, cAMP HTRF) was 8.74; in data set [2] (purified peptides, CHO-K1 cells stably expressing hCRHR1, cAMP HTRF), < 5.30. In addition, the “Solubility pH 7.5, target conc. =5 mg/mL (measured mg/mL)” value in data set [3] was found to be 0.016 mg/mL. The “Fibrillation (pH 7.5)” value in data set [5] (pH 7.5, ThT assay) is recorded as “No”.
